Data: patent US10981926B2 (Janssen Pharmaceutica NV, priority 2016, dated 2021)

How the values were obtained:
Format in all cases: cell-based
[1] = target: T1, F876L mutant Androgen Receptor (AR-F876L) (Homo sapiens (Human), UniProt P10275, F877L); experiment: LNCaP-AR-F876L AG reporter assay (agonist mode); settings: for Emax: read-out: LNCaP-AR-F876L AG MAX % Stim; for EC50: read-out: LNCaP-AR-F876L AG pEC50 (converted)
[2] = target: T2, wild-type Androgen Receptor (AR-wt) (Homo sapiens (Human), UniProt P10275); experiment: LNCaP-AR-wt ANT reporter assay (antagonist mode); settings: for Emax: read-out: LNCaP-AR-wt ANT MAX % Inh; for IC50: read-out: LNCaP-AR-wt ANT pIC50 (converted)
T2 sequence (P10275 whole entry): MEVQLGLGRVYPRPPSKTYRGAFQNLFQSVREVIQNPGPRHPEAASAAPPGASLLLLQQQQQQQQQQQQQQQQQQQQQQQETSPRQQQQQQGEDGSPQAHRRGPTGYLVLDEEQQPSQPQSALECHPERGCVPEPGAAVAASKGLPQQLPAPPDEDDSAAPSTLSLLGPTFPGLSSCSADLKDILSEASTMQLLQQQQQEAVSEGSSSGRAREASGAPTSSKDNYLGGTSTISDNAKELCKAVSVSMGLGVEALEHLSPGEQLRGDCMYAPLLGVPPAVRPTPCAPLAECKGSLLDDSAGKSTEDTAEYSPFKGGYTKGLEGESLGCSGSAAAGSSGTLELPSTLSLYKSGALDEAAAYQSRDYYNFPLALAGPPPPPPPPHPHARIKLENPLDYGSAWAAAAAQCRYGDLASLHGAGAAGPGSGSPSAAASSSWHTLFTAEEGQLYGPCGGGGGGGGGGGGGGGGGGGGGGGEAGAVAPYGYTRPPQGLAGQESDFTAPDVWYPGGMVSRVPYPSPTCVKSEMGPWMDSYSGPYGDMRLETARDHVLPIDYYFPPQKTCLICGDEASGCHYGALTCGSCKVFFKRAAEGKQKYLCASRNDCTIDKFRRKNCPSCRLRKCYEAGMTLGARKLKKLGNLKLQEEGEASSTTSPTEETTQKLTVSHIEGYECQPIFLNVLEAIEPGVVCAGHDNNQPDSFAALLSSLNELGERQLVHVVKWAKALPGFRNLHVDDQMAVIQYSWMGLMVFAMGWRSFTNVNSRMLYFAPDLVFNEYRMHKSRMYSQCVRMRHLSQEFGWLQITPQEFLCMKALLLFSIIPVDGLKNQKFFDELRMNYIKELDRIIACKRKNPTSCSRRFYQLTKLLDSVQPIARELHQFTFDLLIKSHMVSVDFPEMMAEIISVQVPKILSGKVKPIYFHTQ

[3] = target: T1, F876L mutant Androgen Receptor (AR-F876L); experiment: LNCaP-AR-F876L ANT reporter assay (antagonist mode); settings: for Emax: read-out: LNCaP-AR-F876L ANT MAX % Inh; for IC50: read-out: LNCaP-AR-F876L ANT pIC50 (converted)
[4] = target: T2, wild-type Androgen Receptor (AR-wt); experiment: LNCaP-AR-wt AG reporter assay (agonist mode); settings: for Emax: read-out: LNCaP-AR-wt AG MAX % Stim; for EC50: read-out: LNCaP-AR-wt AG pEC50 (converted)
[5] = agonist mode, maximum % stimulation over tested concentration range
[6] = agonist mode, pEC50 = −Log10(EC50 in Molar)
[7] = antagonist mode, maximum % inhibition of R1881 control response over tested concentration range
[8] = antagonist mode, pIC50 = −Log10(IC50 in Molar)
[9] = maximum % stimulation (agonist response) over the tested concentration range
[10] = maximum % inhibition of R1881 control response over the tested concentration range

T1 sequence (P10275 whole entry F877L): as the sequence (P10275 whole entry) above, with F877L counted along it

Compound | Emax [1, 5] | EC50 [1, 6] | Emax [2, 7] | IC50 [2, 8] | Emax [3, 7] | IC50 [3, 8] | Emax [4, 5] | EC50 [4, 6] | Emax [1, 9] | Emax [2, 10] | Emax [3, 10] | Emax [4, 9] | LNCaP-AR-F876L AG pEC50 [1, 6] | LNCaP-AR-F876L AG MAX % Stim [1, 9] | LNCaP-AR-wt ANT pIC50 [2, 8] | LNCaP-AR-wt ANT MAX % Inh [2, 10] | LNCaP-AR-F876L ANT pIC50 [3, 8] | LNCaP-AR-F876L ANT MAX % Inh [3, 10] | LNCaP-AR-wt AG pEC50 [4, 6] | LNCaP-AR-wt AG MAX % Stim [4, 9]
N#Cc1ncc(N2C(=O)C3(CCC3)N(c3ccc4[nH]c(CCO)nc4c3)C2=S)cc1C(F)(F)F | 0.1% | > 15100 nM | 0% | 1740 nM | 100% | 832 nM | 0.4% | > 15100 nM |  |  |  |  |  |  |  |  |  |  |  | 
3-chloro-5-[8-[1-(2-methoxyethyl)indazol-5-yl]-5-oxo-7-thioxo-6,8-diazaspiro[3.4]octan-6-yl]pyridine-2-carbonitrile [Cpd 171] |  |  |  |  |  |  |  |  |  |  |  |  | <4.82 | 0.1% | 6.45 | 101.3% | 6.80 | 100.8% | <4.82 | 0.2%
N#Cc1ncc(N2C(=O)C3(CCC3)N(c3ccc(OC4CCNCC4(F)F)cc3)C2=S)cc1C(F)(F)F (racemic) [Cpd 136, (R,S)-5-[8-[4-[(3,3-difluoro-4-piperidyl)oxy]phenyl]-5-oxo-7-thioxo-6,8-diazaspiro[3.4]octan-6-yl]-3-(trifluoromethyl)pyridine-2-carbonitrile] |  | > 15100 nM |  | 132 nM |  | 126 nM |  | > 15100 nM | 0.3% | 105% | 102% | -0.1% |  |  |  |  |  |  |  | 
CN1CCC(Oc2ccc(N3C(=S)N(c4cnc(C#N)c(C(F)(F)F)c4)C(=O)C34CCC4)cc2)C(F)(F)C1 (racemic) [Cpd 137, (R,S)-5-[8-[4-[(3,3-difluoro-1-methyl-4-piperidyl)oxy]phenyl]-5-oxo-7-thioxo-6,8-diazaspiro[3.4]octan-6-yl]-3-(trifluoromethyl)pyridine-2-carbonitrile] |  | > 15100 nM |  | 49 nM |  | 83.2 nM |  | > 15100 nM | 0.9% | 102% | 98.7% | 0.3% |  |  |  |  |  |  |  | 
N#Cc1ncc(N2C(=O)C3(CCC3)N(c3ccc(OC4CCNC5(CCC5)C4)cc3)C2=S)cc1C(F)(F)F (racemic) [Cpd 151, (R,S)-5-[8-[4-(9-azaspiro[3.5]nonan-6-yloxy)phenyl]-5-oxo-7-thioxo-6,8-diazaspiro[3.4]octan-6-yl]-3-(trifluoromethyl)pyridine-2-carbonitrile] |  | > 15100 nM |  | 234 nM |  | 145 nM |  | > 15100 nM | -0.1% | 106% | 104% | 0% |  |  |  |  |  |  |  | 
Cc1cc(N2C(=O)C3(CCC3)N(c3ccc(-c4cn[nH]c4)cc3)C2=S)cnc1C#N [Cpd 3, 3-methyl-5-[5-oxo-8-[4-(1H-pyrazol-4-yl)phenyl]-7-thioxo-6,8-diazaspiro[3.4]octan-6-yl]pyridine-2-carbonitrile] |  | > 15100 nM |  | 407 nM |  | 324 nM |  | > 15100 nM | 1.8% | 97.8% | 98.9% | 2.2% |  |  |  |  |  |  |  | 
COc1cc(N2C(=S)N(c3cnc(C#N)c(C)c3)C(=O)C23CCC3)ccc1-c1ccc(C)o1 [Cpd 5, 5-{8-[3-methoxy-4-(5-methyl(2-furyl))phenyl]-5-oxo-7-thioxo-6,8-diazaspiro[3.4]oct-6-yl}-3-methylpyridine-2-carbonitrile] |  | > 15100 nM |  | 676 nM |  | 661 nM |  | > 15100 nM | 3.3% | 98.8% | 90.3% | 1.2% |  |  |  |  |  |  |  | 
COCc1ccc(-c2ccc(N3C(=S)N(c4cnc(C#N)c(C)c4)C(=O)C34CCC4)cc2)o1 [Cpd 6, 5-(8-{4-[5-(methoxymethyl)(2-furyl)]phenyl}-5-oxo-7-thioxo-6,8-diazaspiro[3.4]oct-6-yl)-3-methylpyridine-2-carbonitrile] |  | > 15100 nM |  | 295 nM |  | 191 nM |  | > 15100 nM | 0.9% | 99.7% | 98.1% | 0.3% |  |  |  |  |  |  |  | 
Cc1cc(N2C(=O)C3(CCC3)N(c3ccc(-c4cnn(C(N)=O)c4)cc3)C2=S)cnc1C#N [Cpd 7, 4-{4-[7-(6-cyano-5-methyl(3-pyridyl))-8-oxo-6-thioxo-5,7-diazaspiro[3.4]oct-5-yl]phenyl}pyrazolecarboxamide] |  | > 15100 nM |  | 288 nM |  | 135 nM |  | > 15100 nM | 2.8% | 99.1% | 98.2% | 0.3% |  |  |  |  |  |  |  | 
CNC(=O)Cc1ccc(N2C(=S)N(c3cnc(C#N)c(C)c3)C(=O)C23CCC3)cc1 [Cpd 8, 2-{4-[7-(6-cyano-5-methyl(3-pyridyl))-8-oxo-6-thioxo-5,7-diazaspiro[3.4]oct-5-yl]phenyl}-N-methylacetamide] |  | > 15100 nM |  | 1170 nM |  | 1150 nM |  | > 15100 nM | -0.1% | 86.6% | 96% | 0.4% |  |  |  |  |  |  |  | 

Continued, in another order:

Emax [1, 5] | EC50 [1, 6] | Emax [2, 7] | IC50 [2, 8] | Emax [3, 7] | IC50 [3, 8] | Emax [4, 5] | EC50 [4, 6] | Emax [1, 9] | Emax [2, 10] | Emax [3, 10] | Emax [4, 9] | Compound | LNCaP-AR-F876L AG pEC50 [1, 6] | LNCaP-AR-F876L AG MAX % Stim [1, 9] | LNCaP-AR-wt ANT pIC50 [2, 8] | LNCaP-AR-wt ANT MAX % Inh [2, 10] | LNCaP-AR-F876L ANT pIC50 [3, 8] | LNCaP-AR-F876L ANT MAX % Inh [3, 10] | LNCaP-AR-wt AG pEC50 [4, 6] | LNCaP-AR-wt AG MAX % Stim [4, 9]
 | > 15100 nM |  | 316 nM |  | 427 nM |  | > 15100 nM | 2.3% | 100% | 95.6% | 0.3% | CN1CC[C@@H](Oc2ccc(N3C(=S)N(c4cnc(C#N)c(C(F)(F)F)c4)C(=O)C34CCC4)cc2)C[C@H]1C(F)(F)F (racemic) [Cpd 158, 5-[8-[4-[[(2SR, 4RS)-1-methyl-2-(trifluoromethyl)-4-piperidyl]oxy]phenyl]-5-oxo-7-thioxo-6,8-diazaspiro[3.4]octan-6-yl]-3-(trifluoromethyl)pyridine-2-carbonitrile] |  |  |  |  |  |  |  | 
 | > 15100 nM |  | 174 nM |  | 234 nM |  | > 15100 nM | 0% | 104% | 102% | 0.3% | CN1CCC(Oc2ccc(N3C(=S)N(c4cnc(C#N)c(C(F)(F)F)c4)C(=O)C34CCC4)cc2)CC12CCC2 (racemic) [Cpd 178, (R,S)-5-[8-[4-[(9-methyl-9-azaspiro[3.5]nonan-6-yl)oxy]phenyl]-5-oxo-7-thioxo-6,8-diazaspiro[3.4]octan-6-yl]-3-(trifluoromethyl)pyridine-2-carbonitrile] |  |  |  |  |  |  |  | 
0.3% | > 15100 nM | 104% | 219 nM | 104% | 170 nM | -0.2% | > 15100 nM |  |  |  |  | N#Cc1ncc(N2C(=O)C3(CCC3)N(c3ccc(OC4CCNC5(CCC5)C4)nc3)C2=S)cc1C(F)(F)F (racemic) [Cpd 188, (R,S)-5-[8-[6-(9-azaspiro[3.5]nonan-6-yloxy)-3-pyridyl]-5-oxo-7-thioxo-6,8-diazaspiro[3.4]octan-6-yl]-3-(trifluoromethyl)pyridine-2-carbonitrile] |  |  |  |  |  |  |  | 
0.4% | > 15100 nM | 103% | 155 nM | 103% | 186 nM | -0.3% | > 15100 nM |  |  |  |  | CN1CCC(Oc2ccc(N3C(=S)N(c4cnc(C#N)c(C(F)(F)F)c4)C(=O)C34CCC4)cn2)CC12CCC2 (racemic) [Cpd 194, (R,S)-5-[8-[6-[(9-methyl-9-azaspiro[3.5]nonan-6-yl)oxy]-3-pyridyl]-5-oxo-7-thioxo-6,8-diazaspiro[3.4]octan-6-yl]-3-(trifluoromethyl)pyridine-2-carbonitrile] |  |  |  |  |  |  |  | 
0.4% | > 15100 nM | 101% | 372 nM | 100% | 229 nM | 0.5% | > 15100 nM |  |  |  |  | N#Cc1ncc(N2C(=O)C3(CCC3)N(c3ccc(O[C@@H]4CCN[C@H](CO)C4)cc3)C2=S)cc1C(F)(F)F (racemic) [Cpd 223, 5-[8-(2SR,4RS)[4-[[2-(hydroxymethyl)-4-piperidyl]oxy]phenyl]-5-oxo-7-thioxo-6,8-diazaspiro[3.4]octan-6-yl]-3-(trifluoromethyl)pyridine-2-carbonitrile] |  |  |  |  |  |  |  | 
0.2% | > 15100 nM | 101% | 60.3 nM | 100% | 36.3 nM | 0.4% | > 15100 nM |  |  |  |  | CN1CC[C@@H](Oc2ccc(N3C(=S)N(c4cnc(C#N)c(C(F)(F)F)c4)C(=O)C34CCC4)cc2)C[C@H]1CO (racemic) [Cpd 226, 5-[8-(2SR,4RS)[4-[[2-(hydroxymethyl)-1-methyl-4-piperidyl]oxy]phenyl]-5-oxo-7-thioxo-6,8-diazaspiro[3.4]octan-6-yl]-3-(trifluoromethyl)pyridine-2-carbonitrile] |  |  |  |  |  |  |  | 
0% | > 15100 nM |  |  | 101% | 129 nM | 0% | > 15100 nM |  |  |  |  | COc1cc(N2C(=O)C3(CCC3)N(c3ccc(CN4CCNCC4)cc3)C2=S)cnc1C#N [Cpd 229, 3-methoxy-5-[5-oxo-8-[4-(piperazin-1-ylmethyl)phenyl]-7-thioxo-6,8-diazaspiro[3.4]octan-6-yl]pyridine-2-carbonitrile] |  |  |  |  |  |  |  | 
